Test results taken from patent publication US20210260108A1, “ZINC-CONTAINING, WATER-SOLUBLE POLYGLUTAMIC ACID COMPLEX COMPOSITION” (Alextand Co., Ltd, priority 2018, published 2021).

Conditions: 1 g added to 25 mL of water at room temperature (about 25° C., 1 atmosphere)

[O]=[Zn] [zinc oxide]
Water solubility: almost insoluble
